Like-named read-outs stand apart in the source and are kept apart here. Numbered stars: 1 amine (or outer) side, 2 acyl side, 3 side chain; on linkers, the order of the positions; unused ones are H or OH. Square brackets hold non-standard residues; d marks the D form. Peptide text beside a SMILES is read from it. * marks the point of attachment. ξ: configuration not given here. Dolaproine = CO[C@@H]([C@@H]1CCCN1)[C@@H](C)C(=O)O; X1 = COC([C@@H](C)C(=O)[*:2])[C@@H]1CCCN1[*:1]; Dil = CC[C@H](C)[C@H](NC)[C@@H](CC(=O)O)OC; PABC = O=C(OCc1ccc(N[*:1])cc1)[*:2]; Doe = c1ccc(C[C@H](N*)c2nccs2)cc1; X2 = C[C@@H](N*)[C@@H](O)c1ccccc1; Cit = NC(=O)NCCC[C@H](N)C(=O)O; NMeV = CN[C@H](C(=O)O)C(C)C; PEG3 = NCCOCCOCCOCCC(=O)O; ξK = NCCCCC(N)C(=O)O; Ahx = NCCCCCC(=O)O; βAla = NCCC(=O)O
Columns and labels:
Assay in all cases: In vitro cytotoxicity, CellTiter-Glo
Type in all cases: cell-based
BxPC3 cells = conditions: Homo sapiens, BXPC-3, 96 h, read-out: BxPC3 Antibody IC50 (nM)
Experimental: (§1) In vitro cytotoxicity assays were carried out using various antibodies, payloads (i.e., agent moieties), and amine donor units. For mAb2 (a chimeric IgG1 antibody), target expressing (A431, OVCAR3, BxPC3 and HT-29) or non-expressing (SW620) cells were seeded on white walled clear bottom plates at 2000 cells/well for 24 hours before treatment. […] Cell viability was determined by CellTiter-Glo® Luminescent Cell Viability Assay 96 (Promega, Madison Wis.) 96 hours after treatment. […] IC50 was calculated by Prism software.

SW620 cells = conditions: Homo sapiens
Experimental: as §1

HT-29 cells = conditions: Homo sapiens; HT-29, target expressing, 96 hours; read-out: HT-29 Antibody IC50
Experimental: as §1

A431 cells = conditions: Homo sapiens
Experimental: as §1

[1] = SW-620, SW620, target non-expressing, 96 hours, read-out: SW620 Antibody IC50
[2] = A-431, A431, target expressing, 96 hours, read-out: A431 Antibody IC50
[3] = A-431, 96 h, read-out: A431 Antibody IC50 (nM)

SMILES | IC50 (BxPC3 cells) [nM] | IC50 (SW620 cells; [1]) [nM] | IC50 (SW620 cells; SW-620, 96 h, read-out: SW620 Antibody IC50 (nM)) [nM] | IC50 (HT-29 cells) [nM] | IC50 (A431 cells; [2]) [nM] | IC50 (A431 cells; [3]) [nM]
CC[C@H](C)[C@@H]([C@@H](CC(=O)N1CCC[C@H]1C(OC)[C@@H](C)C(=O)N[C@@H](Cc1ccccc1)C(=O)O)OC)N(C)C(=O)[C@@H](NC(=O)[C@H](C(C)C)N(C)C(=O)CCCCCN)C(C)C (stereo partly drawn) [Sample 23, Aminocaproyl-MMAF] (H-[Ahx][NMeV]V[Dil][X1]F-OH) | 0.28 | 0.01 | – | – | – | –
CC[C@H](C)[C@@H]([C@@H](CC(=O)N1CCC[C@H]1[C@H](OC)[C@@H](C)C(=O)N[C@@H](Cc1ccccc1)C(=O)O)OC)N(C)C(=O)[C@@H](NC(=O)[C@H](C(C)C)N(C)C(=O)OCc1ccc(NC(=O)[C@H](CCCNC(N)=O)NC(=O)[C@@H](NC(=O)CCCCCN)C(C)C)cc1)C(C)C [Sample 24, VC-PABC-MMAF] (H-[Ahx]V[Cit][PABC][NMeV]V[Dil][Dolaproine]F-OH) | 427 | – | 483 | – | – | –
CO[C@H]1/C=C\C=C(/C)C(=O)NC2=CC(=O)C(NCCCCN)=C(C[C@@H](C)C[C@H](OC)[C@H](O)[C@@H](C)/C=C(\C)[C@@H]1OC(N)=O)C2=O [Sample 25, Putrescinyl-Geldanamycin] | – | > 1000 | – | 318 | > 1000 | –
CC[C@H](C)[C@@H]([C@@H](CC(=O)N1CCC[C@H]1[C@H](OC)[C@@H](C)C(=O)N[C@@H](Cc1ccccc1)c1nccs1)OC)N(C)C(=O)[C@@H](NC(=O)[C@H](C(C)C)N(C)C(=O)OCc1ccc(NC(=O)[C@H](CCCNC(N)=O)NC(=O)[C@@H](NC(=O)[C@H](CCCCN)NC(C)=O)C(C)C)cc1)C(C)C [Sample 27, AcLys-VC-PABC-MMAD] (Ac-KV[Cit][PABC][NMeV]V[Dil][Dolaproine]-Doe) | – | – | – | 0.189 | – | 0.003
CC[C@H](C)[C@@H]([C@@H](CC(=O)N1CCC[C@H]1[C@H](OC)[C@@H](C)C(=O)N[C@@H](Cc1ccccc1)c1nccs1)OC)N(C)C(=O)[C@@H](NC(=O)[C@H](C(C)C)N(C)C(=O)CCCCCN)C(C)C [Sample 28, Aminocaproyl-MMAD] (H-[Ahx][NMeV]V[Dil][Dolaproine]-Doe) | – | – | – | 97.5 | 146 | –
CC[C@H](C)[C@@H]([C@@H](CC(=O)N1CCC[C@H]1[C@H](OC)[C@@H](C)C(=O)N[C@@H](Cc1ccccc1)c1nccs1)OC)N(C)C(=O)[C@@H](NC(=O)[C@H](C(C)C)N(C)C(=O)CCNC(=O)C(CCCCN)NC(C)=O)C(C)C (stereo partly drawn) [Sample 30, AcLys-β-Ala-MMAD] (Ac-[ξK][βAla][NMeV]V[Dil][Dolaproine]-Doe) | – | – | – | 59.5 | 98.5 | –
CC[C@H](C)[C@@H]([C@@H](CC(=O)N1CCC[C@H]1[C@H](OC)[C@@H](C)C(=O)N[C@H](C)[C@@H](O)c1ccccc1)OC)N(C)C(=O)[C@@H](NC(=O)[C@H](C(C)C)N(C)C(=O)CCOCCOCCOCCN)C(C)C [Sample 33, Amino-PEG3-C2-MMAE] (H-[PEG3][NMeV]V[Dil][Dolaproine]-X2) | – | – | – | 211 | – | 258
